From ChEMBL document CHEMBL1671626, “In vitro profiling of ceftaroline against a collection of recent bacterial clinical isolates from across the United States” (2008)

Experiments:
Format in all cases: functional
Streptococcus agalactiae [1] = experiment: Antibacterial activity against erythromycin-nonsusceptible Streptococcus agalactiae by CLSI M7-A7 broth microdilution method
Streptococcus pyogenes [2] = experiment: Antibacterial activity against erythromycin-nonsusceptible Streptococcus pyogenes by CLSI M7-A7 broth microdilution method
Enterococcus faecium [3] = experiment: Antibacterial activity against vancomycin-resistant Enterococcus faecium assessed as resistant isolates by CLSI M7-A7 broth microdilution method
Enterococcus faecalis [4] = experiment: Antibacterial activity against vancomycin-resistant Enterococcus faecalis by CLSI M7-A7 broth microdilution method
Enterococcus faecalis [5] = experiment: Antibacterial activity against vancomycin-resistant Enterococcus faecalis assessed as resistant isolates by CLSI M7-A7 broth microdilution method
Enterococcus faecium [6] = experiment: Antibacterial activity against vancomycin-resistant Enterococcus faecium by CLSI M7-A7 broth microdilution method
Streptococcus viridans [7] = experiment: Antibacterial activity against penicillin-nonsusceptible Streptococcus viridans by CLSI M7-A7 broth microdilution method
Streptococcus pyogenes [8] = experiment: Antibacterial activity against erythromycin-susceptible Streptococcus pyogenes assessed as susceptible isolates by CLSI M7-A7 broth microdilution method
Streptococcus agalactiae [9] = experiment: Antibacterial activity against erythromycin-susceptible Streptococcus agalactiae by CLSI M7-A7 broth microdilution method
Streptococcus pyogenes [10] = experiment: Antibacterial activity against erythromycin-susceptible Streptococcus pyogenes by CLSI M7-A7 broth microdilution method
Staphylococcus aureus [11] = experiment: Antibacterial activity against coagulase-negative and oxacillin-resistant Staphylococcus aureus assessed as susceptible isolates by CLSI M7-A7 broth microdilution method
Streptococcus agalactiae [12] = experiment: Antibacterial activity against erythromycin-susceptible Streptococcus agalactiae assessed as susceptible isolates by CLSI M7-A7 broth microdilution method
Staphylococcus aureus [13] = experiment: Antibacterial activity against coagulase-negative and oxacillin-susceptible Staphylococcus aureus by CLSI M7-A7 broth microdilution method
Streptococcus viridans [14] = experiment: Antibacterial activity against penicillin-susceptible Streptococcus viridans assessed as susceptible isolates by CLSI M7-A7 broth microdilution method
Streptococcus pneumoniae [15] = experiment: Antibacterial activity against penicillin-susceptible Streptococcus pneumoniae by CLSI M7-A7 broth microdilution method
Staphylococcus aureus [16] = experiment: Antibacterial activity against coagulase-negative and oxacillin-susceptible Staphylococcus aureus assessed as susceptible isolates by CLSI M7-A7 broth microdilution method
Streptococcus viridans [17] = experiment: Antibacterial activity against penicillin-nonsusceptible Streptococcus viridans assessed as resistant isolates by CLSI M7-A7 broth microdilution method
Staphylococcus aureus [18] = experiment: Antibacterial activity against methicillin-susceptible Staphylococcus aureus assessed as susceptible isolates by CLSI M7-A7 broth microdilution method
Staphylococcus aureus [19] = experiment: Antibacterial activity against methicillin-resistant Staphylococcus aureus by CLSI M7-A7 broth microdilution method
Streptococcus agalactiae [20] = experiment: Antibacterial activity against erythromycin-nonsusceptible Streptococcus agalactiae assessed as susceptible isolates by CLSI M7-A7 broth microdilution method
Streptococcus viridans [21] = experiment: Antibacterial activity against penicillin-susceptible Streptococcus viridans by CLSI M7-A7 broth microdilution method
Streptococcus pyogenes [22] = experiment: Antibacterial activity against erythromycin-nonsusceptible Streptococcus pyogenes assessed as susceptible isolates by CLSI M7-A7 broth microdilution method
Staphylococcus aureus [23] = experiment: Antibacterial activity against coagulase-negative and oxacillin-resistant Staphylococcus aureus by CLSI M7-A7 broth microdilution method
Streptococcus viridans [24] = experiment: Antibacterial activity against penicillin-nonsusceptible Streptococcus viridans assessed as susceptible isolates by CLSI M7-A7 broth microdilution method
Enterococcus faecalis [25] = experiment: Antibacterial activity against vancomycin-susceptible Enterococcus faecalis assessed as resistant isolates by CLSI M7-A7 broth microdilution method
Streptococcus pneumoniae [26] = experiment: Antibacterial activity against penicillin-resistant Streptococcus pneumoniae by CLSI M7-A7 broth microdilution method
Staphylococcus aureus [27] = experiment: Antibacterial activity against methicillin-susceptible Staphylococcus aureus by CLSI M7-A7 broth microdilution method
Staphylococcus aureus [28] = experiment: Antibacterial activity against methicillin-resistant Staphylococcus aureus assessed as susceptible isolates by CLSI M7-A7 broth microdilution method
Enterococcus faecium [29] = experiment: Antibacterial activity against vancomycin-resistant Enterococcus faecium assessed as susceptible isolates by CLSI M7-A7 broth microdilution method
Enterococcus faecalis [30] = experiment: Antibacterial activity against vancomycin-susceptible Enterococcus faecalis assessed as susceptible isolates by CLSI M7-A7 broth microdilution method
Enterococcus faecalis [31] = experiment: Antibacterial activity against vancomycin-susceptible Enterococcus faecalis by CLSI M7-A7 broth microdilution method
Moraxella catarrhalis = experiment: Antibacterial activity against beta lactamase-positive Moraxella catarrhalis by CLSI M7-A7 broth microdilution method
Pasteurella multocida = experiment: Antibacterial activity against Pasteurella multocida by CLSI M7-A7 broth microdilution method
Streptococcus viridans [32] = experiment: Antibacterial activity against penicillin-susceptible Streptococcus viridans assessed as resistant isolates by CLSI M7-A7 broth microdilution method
Streptococcus pneumoniae [33] = experiment: Antibacterial activity against penicillin-susceptible Streptococcus pneumoniae assessed as susceptible isolates by CLSI M7-A7 broth microdilution method

CCCCCCCCCC(=O)N[C@@H](Cc1c[nH]c2ccccc12)C(=O)N[C@H](CC(N)=O)C(=O)N[C@@H](CC(=O)O)C(=O)N[C@@H]1C(=O)NCC(=O)N[C@@H](CCCN)C(=O)N[C@@H](CC(=O)O)C(=O)N[C@H](C)C(=O)N[C@@H](CC(=O)O)C(=O)NCC(=O)N[C@H](CO)C(=O)N[C@@H]([C@H](C)CC(=O)O)C(=O)N[C@@H](CC(=O)c2ccccc2N)C(=O)O[C@@H]1C
≤ 0.03 µg/mL: MIC (Streptococcus pyogenes [2]) | MIC50 (Streptococcus pyogenes [2]) | MIC (Streptococcus pyogenes [10]) | MIC50 (Streptococcus pyogenes [10])
0%: Activity (Enterococcus faecium [3]) | Activity (Enterococcus faecalis [5]) | Activity (Streptococcus viridans [17]) | Activity (Enterococcus faecalis [25])
2 µg/mL: MIC50 (Enterococcus faecium [6])
100%: Activity (Streptococcus pyogenes [8]) | Activity (Streptococcus agalactiae [12]) | Activity (Streptococcus viridans [14]) | Activity (Staphylococcus aureus [16]) | Activity (Streptococcus agalactiae [20]) | Activity (Streptococcus pyogenes [22]) | Activity (Streptococcus viridans [24]) | Activity (Enterococcus faecium [29]) | Activity (Enterococcus faecalis [30])
4 µg/mL: MIC90 (Enterococcus faecium [6])
0.25 µg/mL: MIC90 (Streptococcus agalactiae [1]) | MIC90 (Streptococcus pyogenes [2]) | MIC50 (Streptococcus viridans [7]) | MIC50 (Staphylococcus aureus [13]) | MIC50 (Staphylococcus aureus [19]) | MIC50 (Streptococcus viridans [21]) | MIC50 (Staphylococcus aureus [27])
0.5 µg/mL: MIC50 (Enterococcus faecalis [4]) | MIC90 (Streptococcus viridans [7]) | MIC90 (Staphylococcus aureus [13]) | MIC90 (Staphylococcus aureus [19]) | MIC90 (Streptococcus viridans [21]) | MIC50 (Staphylococcus aureus [23]) | MIC90 (Staphylococcus aureus [23]) | MIC90 (Staphylococcus aureus [27])
0.06 µg/mL: MIC90 (Streptococcus pyogenes [10]) | MIC50 (Streptococcus pneumoniae [15]) | MIC50 (Streptococcus pneumoniae [26])
99.7%: Activity (Staphylococcus aureus [11])
99.2%: Activity (Staphylococcus aureus [28])
1 µg/mL: MIC90 (Enterococcus faecalis [4]) | MIC50 (Enterococcus faecalis [31]) | MIC90 (Enterococcus faecalis [31])
99.4%: Activity (Staphylococcus aureus [18])
0.12 µg/mL: MIC50 (Streptococcus agalactiae [1]) | MIC50 (Streptococcus agalactiae [9]) | MIC90 (Streptococcus agalactiae [9]) | MIC90 (Streptococcus pneumoniae [15]) | MIC90 (Streptococcus pneumoniae [26])

CC(=O)NC[C@H]1CN(c2ccc(N3CCOCC3)c(F)c2)C(=O)O1 [LINEZOLID]
0%: Activity (Enterococcus faecium [3]) | Activity (Enterococcus faecalis [5]) | Activity (Streptococcus viridans [32]) | Activity (Streptococcus viridans [17]) | Activity (Enterococcus faecalis [25])
99.3%: Activity (Staphylococcus aureus [11])
2 µg/mL: MIC50 (Enterococcus faecalis [4]) | MIC90 (Enterococcus faecalis [4]) | MIC50 (Enterococcus faecium [6]) | MIC90 (Enterococcus faecium [6]) | MIC90 (Staphylococcus aureus [13]) | MIC50 (Staphylococcus aureus [19]) | MIC90 (Staphylococcus aureus [19]) | MIC90 (Staphylococcus aureus [23]) | MIC50 (Staphylococcus aureus [27]) | MIC90 (Staphylococcus aureus [27]) | MIC50 (Enterococcus faecalis [31]) | MIC90 (Enterococcus faecalis [31])
4 µg/mL: MIC50 (Moraxella catarrhalis) | MIC90 (Moraxella catarrhalis) | MIC50 (Pasteurella multocida)
> 4 µg/mL: MIC90 (Pasteurella multocida)
1 µg/mL: MIC50 (Streptococcus agalactiae [1]) | MIC90 (Streptococcus agalactiae [1]) | MIC (Streptococcus pyogenes [2]) | MIC50 (Streptococcus pyogenes [2]) | MIC90 (Streptococcus pyogenes [2]) | MIC50 (Streptococcus viridans [7]) | MIC90 (Streptococcus viridans [7]) | MIC (Streptococcus agalactiae [9]) | MIC50 (Streptococcus agalactiae [9]) | MIC90 (Streptococcus agalactiae [9]) | MIC50 (Streptococcus pyogenes [10]) | MIC90 (Streptococcus pyogenes [10]) | MIC50 (Staphylococcus aureus [13]) | MIC50 (Streptococcus viridans [21]) | MIC90 (Streptococcus viridans [21]) | MIC50 (Staphylococcus aureus [23])
100%: Activity (Streptococcus pyogenes [8]) | Activity (Streptococcus agalactiae [12]) | Activity (Streptococcus viridans [14]) | Activity (Staphylococcus aureus [16]) | Activity (Staphylococcus aureus [18]) | Activity (Streptococcus pneumoniae [33]) | Activity (Streptococcus agalactiae [20]) | Activity (Streptococcus pyogenes [22]) | Activity (Streptococcus viridans [24]) | Activity (Enterococcus faecium [29]) | Activity (Enterococcus faecalis [30])
